Reference: publication PMC6952396, “Structural basis for itraconazole-mediated NPC1 inhibition” (Nature Communications, 2020)
Where “and” joins values, the source holds several entries; their conditions need not be identical. Equal values may be shown once.

Biological target: T1, NPC1 (Cricetulus griseus, UniProt Q9JLG3)
T1 construct: CHO-7 cells in the medium are deprived of cholesterol to induce the LDL receptors biosynthesis; endogenous in cells; host or cells: CHO-7 cells
T1 sequence (Q9JLG3 23-1277): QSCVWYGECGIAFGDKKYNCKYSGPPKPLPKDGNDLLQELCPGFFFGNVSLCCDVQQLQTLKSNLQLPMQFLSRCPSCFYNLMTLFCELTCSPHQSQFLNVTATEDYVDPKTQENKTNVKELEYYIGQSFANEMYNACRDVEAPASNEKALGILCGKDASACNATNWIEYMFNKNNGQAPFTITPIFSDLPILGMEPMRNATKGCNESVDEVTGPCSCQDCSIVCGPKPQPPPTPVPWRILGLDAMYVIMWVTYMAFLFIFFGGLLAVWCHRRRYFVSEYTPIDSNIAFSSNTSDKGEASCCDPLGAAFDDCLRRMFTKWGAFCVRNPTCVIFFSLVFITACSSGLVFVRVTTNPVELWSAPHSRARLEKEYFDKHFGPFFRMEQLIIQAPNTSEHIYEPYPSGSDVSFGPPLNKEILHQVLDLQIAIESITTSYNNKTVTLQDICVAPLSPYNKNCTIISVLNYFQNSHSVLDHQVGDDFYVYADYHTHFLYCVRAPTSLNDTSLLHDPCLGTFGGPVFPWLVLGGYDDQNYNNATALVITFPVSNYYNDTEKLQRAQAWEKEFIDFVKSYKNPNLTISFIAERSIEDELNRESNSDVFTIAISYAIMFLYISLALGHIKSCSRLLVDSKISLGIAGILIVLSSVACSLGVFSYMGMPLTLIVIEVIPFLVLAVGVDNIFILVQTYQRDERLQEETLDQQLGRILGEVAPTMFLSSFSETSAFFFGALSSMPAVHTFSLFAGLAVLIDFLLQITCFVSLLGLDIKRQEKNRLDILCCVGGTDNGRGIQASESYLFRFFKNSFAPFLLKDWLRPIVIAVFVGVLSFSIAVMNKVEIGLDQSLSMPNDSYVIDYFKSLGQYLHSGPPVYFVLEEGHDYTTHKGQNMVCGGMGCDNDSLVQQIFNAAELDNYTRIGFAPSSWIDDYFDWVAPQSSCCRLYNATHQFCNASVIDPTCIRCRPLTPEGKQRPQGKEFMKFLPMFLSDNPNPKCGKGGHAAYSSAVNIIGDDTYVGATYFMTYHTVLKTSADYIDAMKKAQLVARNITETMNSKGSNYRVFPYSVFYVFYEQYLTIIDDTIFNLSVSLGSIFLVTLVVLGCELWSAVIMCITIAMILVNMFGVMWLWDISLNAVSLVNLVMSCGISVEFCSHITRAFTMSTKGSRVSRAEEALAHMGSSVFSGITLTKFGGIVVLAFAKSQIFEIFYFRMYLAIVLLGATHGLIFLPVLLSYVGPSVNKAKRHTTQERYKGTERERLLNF
Experiment: Cholesterol re-esterification (ACAT) assay measuring NPC1-mediated export of cholesterol from lysosomes in CHO-7 cells
Assay type: cell-based
Conditions: for cholesteryl [14C] oleate formed, Repeat 1 / cholesteryl [14C] oleate formed, Repeat 2: Fig. 2 source data; for cholesteryl [14C] oleate formed, Repeat 3 / cholesteryl [14C] oleate formed, Repeat 4: Supplementary Fig. 3 source data; for IC50: IC50 (concentration at which each compound inhibited cholesterol esterification by 50%), 10% FCS, 4 h then 2 h [14C] oleate pulse
Description: Itraconazole has three chiral centers (Supplementary Fig. 2a). The pharmaceutical form contains four cis-stereoisomers in a 1:1:1:1 molar ratio (Supplementary Fig. 2a–d). To determine the activity of the cis-stereoisomers, the individual isomers were isolated and identified based on their optical rotation in chloroform following a previous report (Supplementary Fig. 2e)[26]. Then, they were separately tested in a cholesterol re-esterification assay used to measure NPC1-mediated export of cholesterol from lysosomes. Briefly, CHO-7 cells in the medium are deprived of cholesterol to induce the LDL receptors biosynthesis. The cells are then incubated with fetal calf serum (FCS) that contains LDL. The LDL-derived cholesterol will now be transported by functional NPC1 protein from the lysosome to the endoplasmic reticulum (ER). The acyl-CoA:cholesterol actyltransferase named ACAT can now re-esterify the cholesterol in the ER. Therefore, the cells were pulse-labeled with [^14C] oleate and we can measure the synthesis of cholesteroyl [^14C] oleate to evaluate the activity of NPC1 protein. Using this assay, we tested the ability of various itraconazole to inhibit NPC1 activity.
Fig. 2 ACAT activity of itraconazole and ketoconazole in CHO-7 cells. On day 0, CHO-7 cells were set up in medium A with 5% LPDS at 2.5 × 10^5 cells/well in 6-well dish. On day 2, cells were switched to medium A with 5% LPDS containing 50 µM sodium compactin and 50 µM sodium mevalonate. On day 3 the cells received fresh medium B containing compactin and mevalonate with various concentration compounds in the presence of 10% FCS containing lipoproteins. After incubation for 4 h at 37 °C, each cell monolayer was pulse-labeled for 2 h with 0.1 mM sodium [^14C] oleate (5792 dpm/nmol). The cells were then harvested for measurement of their content of cholesteryl [^14C] oleate and [^14C] triglycerides, as described in Methods. […] Itraconazole mixture, isomer A (Supplementary Fig. 2a), isomer B (Supplementary Fig. 2b) and isomer C (Supplementary Fig. 2c) were added at final concentrations of 0.3 μM. The isomer D (Supplementary Fig. 2d), I-Br and ketoconazole were added at final concentrations of 1 μM. The biological repeats are shown as individual values. Source data are provided as a Source Data file.
On day 0, cells were set up in medium A with 5% LPDS at 2.5 × 10^5 cells/well in six-well dish. On day 2, cells were switched to medium A with 5% LPDS containing 50 µM sodium compactin and 50 µM sodium mevalonate. On day 3 the cells received fresh medium B containing compactin and mevalonate with indicated concentration triazole compounds in the presence of 10% FCS containing lipoproteins. After incubation for 4 h at 37 °C, each cell monolayer was pulse-labeled for 2 h with 0.1 mM sodium [^14C] oleate (5792 dpm/nmol). The cells were then harvested for measurement of their content of cholesteryl [^14C] oleate and [^14C] triglycerides.
The rate of incorporation of [^14C] oleate into cholesteryl [^14C] oleate and [^14C] triglycerides by monolayers of NPC1^−/− cells and CHO-7 cells was measured as described previously. In brief, cells were switched to medium containing LPDS supplemented with compactin and mevolonate at 16 h before the experiments. On the day of the experiment, cells were incubated for 4 h with fresh medium containing FCS as a source of cholesterol-containing lipoproteins. Cells were then pulse –labeled for 2 h with 0.1 mM sodium [^14C] oleate. Cells were then washed, and the lipids were extracted in hexane:isopropanol (3:2, vol:vol), separated on a silica gel G thin-layer chromatogram (developed in heptane:ethylether:acetic acid, 90:30:1), and quantified by scintillation counting with the use of an internal standard for recovery.

Row | Compound | cholesteryl [14C] oleate formed, Repeat 1 (0.01 uM compound) | cholesteryl [14C] oleate formed, Repeat 2 (0.01 uM compound) | cholesteryl [14C] oleate formed, Repeat 3 (0.01 uM compound) | cholesteryl [14C] oleate formed, Repeat 4 (0.01 uM compound) | cholesteryl [14C] oleate formed, Repeat 1 (0.03 uM compound) | cholesteryl [14C] oleate formed, Repeat 2 (0.03 uM compound) | cholesteryl [14C] oleate formed, Repeat 3 (0.03 uM compound) | cholesteryl [14C] oleate formed, Repeat 4 (0.03 uM compound) | cholesteryl [14C] oleate formed, Repeat 1 (0.06 uM compound) | cholesteryl [14C] oleate formed, Repeat 2 (0.06 uM compound) | cholesteryl [14C] oleate formed, Repeat 3 (0.06 uM compound) | cholesteryl [14C] oleate formed, Repeat 4 (0.06 uM compound) | cholesteryl [14C] oleate formed, Repeat 1 (0.1 uM compound) | cholesteryl [14C] oleate formed, Repeat 2 (0.1 uM compound) | cholesteryl [14C] oleate formed, Repeat 3 (0.1 uM compound) | cholesteryl [14C] oleate formed, Repeat 4 (0.1 uM compound) | cholesteryl [14C] oleate formed, Repeat 1 (0.3 uM compound) | cholesteryl [14C] oleate formed, Repeat 2 (0.3 uM compound) | cholesteryl [14C] oleate formed, Repeat 3 (0.3 uM compound) | cholesteryl [14C] oleate formed, Repeat 4 (0.3 uM compound) | further results
1 | CCC(C)n1ncn(-c2ccc(N3CCN(c4ccc(OCC5COC(Cn6cncn6)(c6ccc(Cl)cc6Cl)O5)cc4)CC3)c(Br)c2)c1=O (stereo not shown) [I-Br] | 4.59 nanomoles formed per hour per milligram cell protein | 4.968 nanomoles formed per hour per milligram cell protein | 4.668 nanomoles formed per hour per milligram cell protein | 4.998 nanomoles formed per hour per milligram cell protein | 5.377 nanomoles formed per hour per milligram cell protein | 4.886 nanomoles formed per hour per milligram cell protein | 4.708 nanomoles formed per hour per milligram cell protein | 4.077 nanomoles formed per hour per milligram cell protein | 4.324 nanomoles formed per hour per milligram cell protein | 4.164 nanomoles formed per hour per milligram cell protein | 4.605 nanomoles formed per hour per milligram cell protein | 3.966 nanomoles formed per hour per milligram cell protein | 3.9836 nanomoles formed per hour per milligram cell protein | 4.202 nanomoles formed per hour per milligram cell protein | 4.772 nanomoles formed per hour per milligram cell protein | 3.292 nanomoles formed per hour per milligram cell protein | 1.539 nanomoles formed per hour per milligram cell protein | 1.1254 nanomoles formed per hour per milligram cell protein | 1.245 nanomoles formed per hour per milligram cell protein | 1.037 nanomoles formed per hour per milligram cell protein | cholesteryl [14C] oleate formed, Repeat 1 (1 uM compound): 0.2467 nanomoles formed per hour per milligram cell protein; cholesteryl [14C] oleate formed, Repeat 2 (1 uM compound): 0.5544 nanomoles formed per hour per milligram cell protein; cholesteryl [14C] oleate formed, Repeat 3 (1 uM compound): 0.5005 nanomoles formed per hour per milligram cell protein; cholesteryl [14C] oleate formed, Repeat 4 (1 uM compound): 0.5131 nanomoles formed per hour per milligram cell protein; IC50: 200 nM and ~200 nM
2 | CCC(C)n1ncn(-c2ccc(N3CCN(c4ccc(OCC5COC(Cn6cncn6)(c6ccc(Cl)cc6Cl)O5)cc4)CC3)cc2)c1=O (stereo not shown) [Itraconazole mixture, itraconazole] | 4.018 nanomoles formed per hour per milligram cell protein | 4.2448 nanomoles formed per hour per milligram cell protein | 4.59 nanomoles formed per hour per milligram cell protein | 4.561 nanomoles formed per hour per milligram cell protein | 5.241 nanomoles formed per hour per milligram cell protein | 3.3234 nanomoles formed per hour per milligram cell protein | 3.807 nanomoles formed per hour per milligram cell protein | 5.72 nanomoles formed per hour per milligram cell protein | 1.349 nanomoles formed per hour per milligram cell protein | 2.23 nanomoles formed per hour per milligram cell protein | 3.728 nanomoles formed per hour per milligram cell protein | 1.926 nanomoles formed per hour per milligram cell protein | 1.053 nanomoles formed per hour per milligram cell protein | 0.9435 nanomoles formed per hour per milligram cell protein | 1.321 nanomoles formed per hour per milligram cell protein | 1.133 nanomoles formed per hour per milligram cell protein | 0.3641 nanomoles formed per hour per milligram cell protein | 0.3378 nanomoles formed per hour per milligram cell protein | 0.05082 nanomoles formed per hour per milligram cell protein | 0.1455 nanomoles formed per hour per milligram cell protein | IC50: ~50 nM and 50 nM
